# Measurements from US4605614A, “Method for measuring plasmin” (Nitto Boseki Co., Ltd., priority 1981, dated 1986).
# Where a SMILES comes first, the peptide text is derived from it.
# Assays:
# Factor-Xa (FXa) = Factor-Xa (FXa) (Bos taurus, UniProt P00743); format: biochemical, Cow; details: TABLE 3, PNA substrates; So = 0.54 mmole/l; pH 8.4; 37° C., 10 minutes; 0.4 U/ml
# Plasmin (PL) = Plasmin (PL) (Sus scrofa, UniProt P06867); format: biochemical, Pig; details: TABLE 3, PNA substrates; So = 0.54 mmole/l; pH 7.4; 37° C., 10 minutes; 0.32 CU/ml
# Procedure: (§1) (1) Substrate solution concentration: 35 mmole/liter H2 O
# (§2) (2) Buffer: Tris-hydrochloric acid buffer 50 mmole/l, NaCl 150 mmole/l (0.875%) was employed, and the pH for reaction was as follows depending on the enzyme.
# Plasmin Pig Sigma (U.S.A.)
# (§3) 0.5 ml of the buffer solution and 0.05 ml of the enzyme reagent were taken into a silicon-treated hard glass test tube or a plastic test tube, and preheated in a constant temperature bath at 37° C. for 5 minutes. Thereafter, 0.1 ml of the substrate solution was added to effect the enzymatic reaction at 37° C. for 10 minutes. Exactly after 10 minutes, 2.5 ml of the reaction terminating solution or the terminating and color developing reagent solution was added to terminate the enzymatic reaction, and after allowing to stand at 25° C. for 10 minutes, the absorbance at 405 nm or 645 nm was measured, in which [drawing 49]
# plasmin (pig) [1] = target: T1, plasmin (pig) (Sus scrofa, UniProt P06867); details: prior substrate; enzyme not stated in the sentence (plasmin substrates); cited from earlier work
# [2] = tested on: coagulation and linear dissolution related enzymes such as thrombin, Factor Xa, UK; details: prior substrate, cited from earlier work
# plasmin (pig) [3] = target: T1, plasmin (pig); assay: Km, Vmax and Vmax/Km of substrates for plasmin (pig); format: biochemical, Porcine (pig); details: for Vmax (× 10^-6) [mole/min/Cu]: Porcine Plasmin, comparison table in description; for V/Km (× 10^-3) / Vmax (× 10^7): TABLE 1, PNA substrates, plasmin (pig); for Vmax (× 10^7): 405 nm; for Relative ratio: TABLE 1, V/Km of each sample divided by that of S2251
# Urokinase (UK) = Urokinase (UK) (Homo sapiens, UniProt P00749); format: biochemical; details: TABLE 3, PNA substrates; So = 0.54 mmole/l; pH 8.2; 37° C., 10 minutes; 1000 IU/ml
# Kallikrein (KL) = Kallikrein (KL) (Sus scrofa, UniProt P00752); format: biochemical, Pig; details: TABLE 3, PNA substrates; So = 0.54 mmole/l; pH 7.9; 37° C., 10 minutes; 1.0 BAEE-U/ml
# Procedure: (§4) The specificities of the novelly synthesized substrates were tested by reacting them with various enzymes respectively.
# as §1, §2
# (§5) 2,6-Xylenol 7.0 mmole+NaIO4 1.5 mmole/0.2N KOH
# as §3
# Thrombin (TH) = Thrombin (TH) (Bos taurus, UniProt P00735); format: biochemical, Cow; details: TABLE 3, PNA substrates; So = 0.54 mmole/l; pH 8.4; 37° C., 10 minutes; 1.0 NIH/ml
# Procedure: as §4, §1, §2, §5, §3
# Human Thrombin = details: read-out: Michaelis's constant (Km); cited from earlier work
# Human Plasmin = details: read-out: Michaelis's constant (Km); cited from earlier work
# T1 sequence (P06867 97-809): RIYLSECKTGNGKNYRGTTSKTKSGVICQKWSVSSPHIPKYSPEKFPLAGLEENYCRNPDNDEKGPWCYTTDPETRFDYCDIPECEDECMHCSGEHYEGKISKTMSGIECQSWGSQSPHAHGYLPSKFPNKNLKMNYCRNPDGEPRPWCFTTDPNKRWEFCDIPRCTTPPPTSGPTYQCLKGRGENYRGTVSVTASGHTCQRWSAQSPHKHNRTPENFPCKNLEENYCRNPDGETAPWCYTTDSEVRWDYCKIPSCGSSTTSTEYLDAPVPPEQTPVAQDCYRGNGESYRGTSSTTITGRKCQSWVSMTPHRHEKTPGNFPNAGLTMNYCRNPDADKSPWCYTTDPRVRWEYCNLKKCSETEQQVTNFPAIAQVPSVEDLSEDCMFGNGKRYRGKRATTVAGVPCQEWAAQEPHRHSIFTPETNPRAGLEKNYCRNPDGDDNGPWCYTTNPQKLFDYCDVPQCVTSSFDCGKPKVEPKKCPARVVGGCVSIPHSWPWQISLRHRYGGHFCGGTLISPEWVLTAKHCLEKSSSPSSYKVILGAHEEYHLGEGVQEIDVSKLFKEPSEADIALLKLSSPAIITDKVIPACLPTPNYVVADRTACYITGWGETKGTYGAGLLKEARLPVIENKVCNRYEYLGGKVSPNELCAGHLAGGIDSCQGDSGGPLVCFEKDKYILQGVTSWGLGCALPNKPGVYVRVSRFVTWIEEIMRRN
# Plasmin (PL), sequence (P06867 97-809): as above
# Thrombin (TH), sequence (P00735 44-625): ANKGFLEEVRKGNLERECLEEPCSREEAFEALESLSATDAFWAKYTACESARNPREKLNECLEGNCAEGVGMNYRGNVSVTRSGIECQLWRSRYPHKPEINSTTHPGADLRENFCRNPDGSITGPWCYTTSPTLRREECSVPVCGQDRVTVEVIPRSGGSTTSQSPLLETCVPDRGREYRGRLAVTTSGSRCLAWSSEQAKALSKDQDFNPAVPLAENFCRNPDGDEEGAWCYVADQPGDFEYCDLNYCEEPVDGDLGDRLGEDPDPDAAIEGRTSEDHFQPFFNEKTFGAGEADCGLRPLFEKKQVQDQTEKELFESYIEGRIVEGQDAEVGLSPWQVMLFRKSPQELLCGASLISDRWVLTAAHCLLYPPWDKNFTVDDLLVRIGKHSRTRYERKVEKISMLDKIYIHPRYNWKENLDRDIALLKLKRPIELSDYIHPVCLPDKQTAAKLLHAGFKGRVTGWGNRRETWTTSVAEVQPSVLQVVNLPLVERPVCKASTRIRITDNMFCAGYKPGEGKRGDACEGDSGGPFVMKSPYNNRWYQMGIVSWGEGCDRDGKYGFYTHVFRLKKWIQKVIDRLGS
# Kallikrein (KL), sequence (P00752 8-246): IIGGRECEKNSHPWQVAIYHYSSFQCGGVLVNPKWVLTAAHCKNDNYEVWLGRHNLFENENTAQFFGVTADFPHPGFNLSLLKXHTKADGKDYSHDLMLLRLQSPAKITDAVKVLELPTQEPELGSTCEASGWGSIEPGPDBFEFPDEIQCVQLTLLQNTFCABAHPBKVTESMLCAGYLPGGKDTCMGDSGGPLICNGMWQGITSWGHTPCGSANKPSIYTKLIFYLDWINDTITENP
# Factor-Xa (FXa), sequence (P00743 41-180): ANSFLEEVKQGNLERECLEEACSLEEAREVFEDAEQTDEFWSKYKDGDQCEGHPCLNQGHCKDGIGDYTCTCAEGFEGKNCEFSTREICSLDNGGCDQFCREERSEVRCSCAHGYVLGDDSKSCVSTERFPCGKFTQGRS
# Factor-Xa (FXa), sequence (P00743 234-492): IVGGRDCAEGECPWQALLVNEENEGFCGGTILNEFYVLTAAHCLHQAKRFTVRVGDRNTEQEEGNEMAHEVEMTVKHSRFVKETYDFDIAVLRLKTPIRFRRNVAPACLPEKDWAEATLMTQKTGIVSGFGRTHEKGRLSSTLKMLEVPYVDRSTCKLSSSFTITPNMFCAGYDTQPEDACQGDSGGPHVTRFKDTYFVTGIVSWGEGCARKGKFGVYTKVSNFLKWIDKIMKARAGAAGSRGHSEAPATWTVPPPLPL
SMILES,"Selectivity FXa, absorbance (O.D.) at 405 nm (Factor-Xa (FXa))","Selectivity PL, absorbance (O.D.) at 405 nm (Plasmin (PL))",Km value compared with S-2251 (in words) (plasmin (pig) [1]),"reaction with coagulation and linear dissolution related enzymes such as thrombin, Factor Xa, UK ([2]; in words)",Vmax (× 10^-6) [mole/min/Cu] (plasmin (pig) [3]),V/Km (× 10^-3) (plasmin (pig) [3]),Vmax (× 10^7) (plasmin (pig) [3]),Relative ratio (plasmin (pig) [3]),"Selectivity UK, absorbance (O.D.) at 405 nm (Urokinase (UK))","Selectivity KL, absorbance (O.D.) at 405 nm (Kallikrein (KL))","Selectivity TH, absorbance (O.D.) at 405 nm (Thrombin (TH))",Km (Human Thrombin),selectivity (in words) [2],Km (Human Plasmin)
"Cc1ccc(S(=O)(=O)NCC(=O)N2CCC[C@H]2C(=O)N[C@@H](CCCCN)C(=O)Nc2ccc([N+](=O)[O-])cc2)cc1 [CHR-PL, Tos-Gly-Pro-Lys-PNA, reference compound] (HELM PEPTIDE1{[Cc1ccc(S(=O)(=O)[*:2])cc1].G.P.K.[O=[N+]([O-])c1ccc(N[*:1])cc1]}$$$$V2.0)",0.026 O.D.,0.647 O.D.,smaller than that of S-2251,considerably reacts,6.0 × 10^-6 mole/min/Cu,21.628 × 10^-3,60.067 × 10^7,1.889,0.069 O.D.,0.004 O.D.,0.057 O.D.,,,
NCCCC[C@H](NC(=O)[C@H](Cc1ccccc1)NC(=O)[C@H](N)CCC(=O)OCCc1ccccc1)C(=O)Nc1ccc([N+](=O)[O-])cc1 [NPN-8],0.005 O.D.,0.181 O.D.,,,,,28.542 × 10^7,8.019,0.003 O.D.,0.014 O.D.,0 O.D.,,,
Cc1ccc(CCOC(=O)CC[C@@H](N)C(=O)N[C@@H](Cc2ccccc2)C(=O)N[C@@H](CCCCN)C(=O)Nc2ccc([N+](=O)[O-])cc2)cc1 [NPN-9],0.006 O.D.,0.299 O.D.,,,,,30.202 × 10^7,6.171,0.002 O.D.,0.016 O.D.,0 O.D.,,,
Cc1ccc(C(=O)NCCCC[C@@H](N)C(=O)N[C@@H](Cc2ccccc2)C(=O)N[C@@H](CCCCN)C(=O)Nc2ccc([N+](=O)[O-])cc2)cc1 [NPN-10],0.006 O.D.,0.335 O.D.,,,,,26.218 × 10^7,14.764,0.001 O.D.,0.011 O.D.,0.001 O.D.,,,
NCCCC[C@H](NC(=O)[C@H](Cc1ccccc1)NC(=O)[C@H](N)CCCCNS(=O)(=O)c1ccc2ccccc2c1)C(=O)Nc1ccc([N+](=O)[O-])cc1 [NPN-11],0.005 O.D.,0.171 O.D.,,,,,23.895 × 10^7,11.660,0.001 O.D.,0.001 O.D.,0 O.D.,,,
N=C(N)NCCC[C@H](NC(=O)[C@@H]1CCCCN1C(=O)[C@H](N)Cc1ccccc1)C(=O)Nc1ccc([N+](=O)[O-])cc1 [S-2238],,,,,,,,,,,,7 µM,,
"CC(C)C[C@H](NC(=O)[C@H](N)C(C)C)C(=O)N[C@@H](CCCCN)C(=O)Nc1ccc([N+](=O)[O-])cc1 [S-2251, H-D-Val-Leu-Lys-PNA, reference compound] (HELM PEPTIDE1{[dV].L.K.[O=[N+]([O-])c1ccc(N[*:1])cc1]}$$$$V2.0)",0.007 O.D.,0.306 O.D.,,,4.0 × 10^-6 mole/min/Cu,11.449 × 10^-3,39.876 × 10^7,1.000,0.001 O.D.,0.017 O.D.,0.001 O.D.,,comparatively good selectivity,300 µM
